The source of these data is ChEMBL document CHEMBL3774317, “Design and synthesis of novel tamoxifen analogues that avoid CYP2D6 metabolism” (Eur J Med Chem, 2016).

Series [1] is described as follows: Cytotoxicity against human OVCAR3 cells assessed as cell growth at 5 nM after 48 hrs by SRB assay. It is filed as functional. The settings on record: OVCAR-3, 48 h, read-out: Activity. For orientation: The SRB assay estimates cell density from bound dye.
Series [2] is described as follows: Cytotoxicity against human TK10 cells assessed as cell growth at 50 uM after 48 hrs by SRB assay. Format: functional. The settings on record: TK-10, 48 h, read-out: Activity.
Series [3] relates to EKVX. As to the kind of experiment: Cytotoxicity against human EKVX cells assessed as cell growth at 50 uM after 48 hrs by SRB assay. Format: functional. The settings on record: read-out: Activity.
The nature of series [4]: Cytotoxicity against human Caki1 cells assessed as cell growth at 50 uM after 48 hrs by SRB assay. It is filed as functional. To be noted: CAKI-1, 48 h, read-out: Activity.
Series [5] is described as follows: Cytotoxicity against human COLO205 cells assessed as cell growth at 0.5 uM after 48 hrs by SRB assay. It is filed as functional. The settings on record: COLO 205, 48 h, read-out: Activity.
Series [6] is described as follows: Cytotoxicity against human IGROV1 cells assessed as cell growth at 50 uM after 48 hrs by SRB assay. It is filed as functional. To be noted: IGROV-1, 48 h, read-out: Activity.
Series [7] relates to Malme-3M. As to the kind of experiment: Cytotoxicity against human MALME-3M cells assessed as cell growth at 5 nM after 48 hrs by SRB assay. It is filed as functional. To be noted: read-out: Activity.
Series [8] in a line: Cytotoxicity against human PC3 cells assessed as cell growth at 50 nM after 48 hrs by SRB assay. Format: functional. The settings on record: PC-3, 48 h, read-out: Activity.
Series [9] deals with Malme-3M. As to the kind of experiment: Cytotoxicity against human MALME-3M cells assessed as cell growth at 0.5 uM after 48 hrs by SRB assay. Format: functional. The settings on record: read-out: Activity.
Series [10] concerns ACHN. As to the kind of experiment: Cytotoxicity against human ACHN cells assessed as cell growth at 50 uM after 48 hrs by SRB assay. It is filed as functional. The settings on record: read-out: Activity.
Series [11] deals with NCI-H226. As to the kind of experiment: Cytotoxicity against human NCI-H226 cells assessed as cell growth at 5 nM after 48 hrs by SRB assay. Format: functional. The settings on record: NCI-H226, 48 h, read-out: Activity.
A short description of series [12]: Cytotoxicity against human IGROV1 cells assessed as cell growth at 5 nM after 48 hrs by SRB assay. It is filed as functional. The settings on record: IGROV-1, 48 h, read-out: Activity.
Series [13] deals with A498. As to the kind of experiment: Cytotoxicity against human A498 cells assessed as cell growth at 50 nM after 48 hrs by SRB assay. It is filed as functional. To be noted: A498, 48 h, read-out: Activity.
Series [14] concerns SK-MEL-28. In words: Cytotoxicity against human SK-MEL-28 cells assessed as cell growth at 50 uM after 48 hrs by SRB assay. Format: functional. The settings on record: SK-MEL-28, 48 h, read-out: Activity.
Series [15] is described as follows: Cytotoxicity against human SNB75 cells assessed as cell growth at 50 nM after 48 hrs by SRB assay. Format: functional. To be noted: SNB-75, 48 h, read-out: Activity.
A short description of series [16]: Cytotoxicity against human HCT116 cells assessed as cell growth at 0.5 uM after 48 hrs by SRB assay. To be noted: HCT-116, 48 h, read-out: Activity. It is filed as functional.
Series [17] can be described thus: Metabolic stability in human hepatocytes assessed as remaining parent compound level at 10 uM after 3 hrs by LC/MS analysis. It is filed as ADME, cell-based, Hepatocyte. To be noted: read-out: Drug metabolism.
Series [18] in a line: Cytotoxicity against human LOXIMVI cells assessed as cell growth at 5 uM after 48 hrs by SRB assay. It is filed as functional. To be noted: LOX IMVI, read-out: Activity.
Series [19] has as its system T47D. As to the kind of experiment: Cytotoxicity against human T47D cells assessed as cell growth at 50 uM after 48 hrs by SRB assay. Format: functional. To be noted: read-out: Activity.
Series [20] has as its system SK-MEL-5. In words: Cytotoxicity against human SK-MEL-5 cells assessed as cell growth at 5 uM after 48 hrs by SRB assay. To be noted: SK-MEL-5, 48 h, read-out: Activity. Format: functional.
A short description of series [21]: Cytotoxicity against human SKOV3 cells assessed as cell growth at 10^-4 M after 48 hrs by SRB assay. Format: functional. The settings on record: SK-OV-3, 48 h, read-out: Activity.
A short description of series [22]: Cytotoxicity against human PC3 cells assessed as cell growth at 10^-4 M after 48 hrs by SRB assay. The settings on record: PC-3, 48 h, read-out: Activity. It is filed as functional.
The nature of series [23]: Cytotoxicity against human Caki1 cells assessed as cell growth at 10^-6 M after 48 hrs by SRB assay. It is filed as functional. The settings on record: CAKI-1, 48 h, read-out: Activity.
For series [24], the system named is MDA-MB-231. In words: Cytotoxicity against human MDA-MB-231 cells assessed as cell growth at 10^-8 M after 48 hrs by SRB assay. It is filed as functional. To be noted: MDA-MB-231, 48 h, read-out: Activity.
Series [25] has as its system U-251. In words: Cytotoxicity against human U251 cells assessed as cell growth at 10^-7 M after 48 hrs by SRB assay. Format: functional. To be noted: U-251, 48 h, read-out: Activity.
A short description of series [26]: Cytotoxicity against human SKOV3 cells assessed as cell growth at 10^-7 M after 48 hrs by SRB assay. It is filed as functional. To be noted: SK-OV-3, 48 h, read-out: Activity.
In series [27] the test system is SR. In words: Cytotoxicity against human SR cells assessed as cell growth at 10^-6 M after 48 hrs by SRB assay. The settings on record: read-out: Activity. Format: functional.
Series [28] relates to SR. In words: Cytotoxicity against human SR cells assessed as cell growth at 10^-7 M after 48 hrs by SRB assay. Format: functional. To be noted: read-out: Activity.
The nature of series [29]: Cytotoxicity against human SNB75 cells assessed as cell growth at 10^-6 M after 48 hrs by SRB assay. It is filed as functional. The settings on record: SNB-75, 48 h, read-out: Activity.
The nature of series [30]: Cytotoxicity against human OVCAR3 cells assessed as cell growth at 10^-8 M after 48 hrs by SRB assay. It is filed as functional. To be noted: OVCAR-3, 48 h, read-out: Activity.
The subject of series [31] is T47D. As to the kind of experiment: Cytotoxicity against human T47D cells assessed as cell growth at 10^-6 M after 48 hrs by SRB assay. Format: functional. The settings on record: read-out: Activity.
Series [32] relates to MDA-MB-468. In words: Cytotoxicity against human MDA-MB-468 cells assessed as cell growth at 10^-6 M after 48 hrs by SRB assay. Format: functional. The settings on record: MDA-MB-468, 48 h, read-out: Activity.
Series [33] has as its system MCF7. In words: Cytotoxicity against human MCF7 cells assessed as cell growth at 10^-5 M after 48 hrs by SRB assay. Format: functional. The settings on record: MCF7, 48 h, read-out: Activity.
Series [34] relates to NCI-H322M. As to the kind of experiment: Cytotoxicity against human NCI-H322M cells assessed as cell growth at 10^-5 M after 48 hrs by SRB assay. Format: functional. To be noted: read-out: Activity.
Series [35] deals with NCI-H460. As to the kind of experiment: Cytotoxicity against human NCI-H460 cells assessed as cell growth at 10^-6 M after 48 hrs by SRB assay. To be noted: NCI-H460, 48 h, read-out: Activity. It is filed as functional.
The subject of series [36] is U-251. As to the kind of experiment: Cytotoxicity against human U251 cells assessed as cell growth at 10^-5 M after 48 hrs by SRB assay. It is filed as functional. To be noted: U-251, 48 h, read-out: Activity.
In series [37] the test system is Malme-3M. In words: Cytotoxicity against human MALME-3M cells assessed as cell growth at 10^-4 M after 48 hrs by SRB assay. Format: functional. To be noted: read-out: Activity.
Series [38] is described as follows: Cytotoxicity against human HCT116 cells assessed as cell growth at 10^-5 M after 48 hrs by SRB assay. It is filed as functional. To be noted: HCT-116, 48 h, read-out: Activity.
Series [39] is described as follows: Cytotoxicity against human MOLT4 cells assessed as cell growth at 10^-4 M after 48 hrs by SRB assay. To be noted: MOLT-4, 48 h, read-out: Activity. Format: functional.
The nature of series [40]: Cytotoxicity against human LOXIMVI cells assessed as cell growth at 10^-6 M after 48 hrs by SRB assay. It is filed as functional. To be noted: LOX IMVI, read-out: Activity.
Series [41] is described as follows: Cytotoxicity against human HOP92 cells assessed as cell growth at 10^-7 M after 48 hrs by SRB assay. Format: functional. The settings on record: HOP-92, 48 h, read-out: Activity.
Series [42] in a line: Cytotoxicity against human HCT15 cells assessed as cell growth at 10^-6 M after 48 hrs by SRB assay. Format: functional. To be noted: HCT-15, 48 h, read-out: Activity.
Series [43] has as its system NCI-H460. As to the kind of experiment: Cytotoxicity against human NCI-H460 cells assessed as cell growth at 10^-8 M after 48 hrs by SRB assay. It is filed as functional. To be noted: NCI-H460, 48 h, read-out: Activity.

For the molecule `CCCCCCCCCC(=O)Oc1ccc(/C(=C(/C)c2ccccc2)c2ccc(OCCN3CCCC3)cc2)cc1`, the growth at 0.005 µM was 108% in [1], 108% in [7], 93% in series [11] and 108% in series [12]. Further, the growth at 50 µM was -87% in series [2]; -97% in [3]; -89% in [4]; -58% in series [6]; -92% in [10]; -95% in series [14]. Also, the growth at 50 µM in series [19] was -61%. In addition, the growth at 0.5 µM in series [5] is 44%; in series [9], 61%; in series [16] it was 71%. The values for the growth at 0.05 µM in [8], in [13] and in series [15] were 97%, 53% and 83%, respectively. Besides, the remaining at 3 h, 10 µM in series [17] was 36%. Besides, the growth at 5 µM in series [18] was found to be 89%; in [20], 90%.

Consider `C/C(=C(/c1ccc(O)cc1)c1ccc(OCCN2CCCC2)cc1)c1ccccc1`, for which the growth at 100 µM in [21] is -98%; in series [22] it was -96%; in series [37], -91%; in [39] it was -61%. Moreover, the growth at 1 µM was 81% in series [23]; 80% in [27]; 76% in series [29]; 48% in series [31]; 84% in series [32]; 102% in series [35]. Also, the growth at 1 µM in series [40] was determined as 92%; in series [42] it was 81%. In addition, the results for the growth at 0.01 µM in series [24], in series [30] and in [43] were 110%, 106% and 106%, respectively. Further, the growth at 0.1 µM in series [25] was determined as 100%; in series [26] it was 93%; in series [28], 90%; in series [41], 102%. Further, the growth at 10 µM in series [33] was -47%; in series [34], 34%; in series [36], -33%; in [38], 1%.
